Assays:
[1] = Kamata et al (2004) Structure 12: 429-438; cited from earlier work
[2] = molecular target: T1, purified human recombinant GK (Homo sapiens, UniProt P35557); experiment: Glucokinase activity assay (coupled enzymatic GK/G6PD assay, NADH absorbance at 340 nm); type: biochemical; details: for EC50: EC50 of % change in S0.5 of glucokinase for glucose, sigmoidal fit, read-out: EC50 (with respect to % ΔS0.5); for % Emax (with respect to % ΔS0.5) / Emax: Emax of % change in S0.5, vehicle S0.5 = 0%, 0 mM glucose = 100%; for Emax: read-out: % Emax (with respect to % ΔS0.5)
T1 sequence (P35557 1-465): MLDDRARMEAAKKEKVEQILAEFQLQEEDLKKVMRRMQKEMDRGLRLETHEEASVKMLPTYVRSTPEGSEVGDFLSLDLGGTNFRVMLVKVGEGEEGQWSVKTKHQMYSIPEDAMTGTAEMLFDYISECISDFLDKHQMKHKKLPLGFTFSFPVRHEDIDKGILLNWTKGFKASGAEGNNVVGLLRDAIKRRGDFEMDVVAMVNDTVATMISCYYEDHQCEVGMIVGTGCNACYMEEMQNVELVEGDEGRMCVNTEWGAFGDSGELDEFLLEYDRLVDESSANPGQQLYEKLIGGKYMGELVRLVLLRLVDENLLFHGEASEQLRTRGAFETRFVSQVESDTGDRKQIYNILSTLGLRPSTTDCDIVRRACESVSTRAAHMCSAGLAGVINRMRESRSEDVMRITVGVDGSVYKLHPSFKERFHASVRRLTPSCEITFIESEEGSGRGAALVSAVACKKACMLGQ
Source text: The glucokinase (GK) assay is a coupled enzymatic assay. GK catalyzes the first step of glycolysis, the conversion of glucose to glucose-6-phosphate (G6P) in the presence of ATP. G6P in turn is converted by glucose-6-phosphate dehydrogenase (G6PD) to 6-phosphogluconate, a process that requires NAD, resulting in NADH formation. Since the GK-catalyzed step is the rate-limiting step of this coupled enzymatic process, the rate of accumulation of 6-phosphogluconate and NADH is directly proportional to the rate of glucose phosphorylation by GK. The rate of the GK-catalyzed reaction can therefore be measured by monitoring the increase in NADH absorbance at 340 nm.
The assay is carried out according to the protocol outlined in Hariharan et al (1997), Diabetes 46: 11-16. Briefly, the test compounds are incubated in a reaction mix containing 25 mM HEPES (pH 7.2), 10 mM MgCl2, 100 mM KCl, 5 mM ATP, 2 mM DTT, 0.5 mM NAD, 1 U/ml Leuconostoc mesenteroides G6PD, 0.3 U/ml of purified human recombinant GK, and different concentrations of glucose. Enzymatic activity is calculated from the initial reaction velocity, measured from the change in NADH absorbance as a function of time.
Compounds described in formula (I), in concentration ranges from 1.0 nM to […] are tested in the purified human recombinant glucokinase assay described above.
A compound is considered to be a glucokinase activator if it, in its testable range of concentrations, yields a higher rate of glucose phosphorylation than in its absence at a particular glucose concentration, for example at 5 mM glucose.
Compounds of general formula (I) are tested in the in vitro GK enzymatic assay to monitor dose-dependent effect on glucokinase activation (in kinetic mode), as described above, at various glucose concentrations. The S0.5 of glucokinase for glucose at different concentration of each compound of interest is calculated from the following modified version of the Michaelis-Menten equation, V=Vmax[S]^n/(S0.5^n+[S]^n), where [S] is the glucose concentration and n is the Hill coefficient (taken as 1.7 to account for the sigmoidal kinetics of glucokinase with respect to glucose). The S0.5 is plotted against the log of the compound concentration. The change in the S0.5 of glucokinase (ΔS0.5) for glucose is calculated by subtracting the S0.5 at each concentration of the compound from the S0.5 in the vehicle control. The ΔS0.5 is then normalized to a percent scale, where the S0.5 in the vehicle control is set to 0% and 0 mM glucose is set to 100%. The % ΔS0.5 is then plotted against the log of the compound concentration. The EC50 and Emax of % change in S0.5 is obtained from the sigmoidal fit of the data. Detailed protocol has been described in our copending application no. WO 2008/104994 which is incorporated herein by reference. Characterization data of some representative glucokinase activators of the present disclosure, which are illustrative but not limiting, are given in table 1 below.

primary rat hepatocytes = experiment: Measurement of glycogen synthesis in primary rat hepatocytes; type: cell-based; details: 10 mM glucose, fold increase over DMSO control; for Fold increase in glycogen synthesis at 10 μM compound: 3 hours; for fold induction at 10 µM: Rattus norvegicus, Hepatocyte, 3 h, 10 μM compound
Protocol: Primary hepatocytes are collected from male Wistar rats, and tested for viability by trypan blue exclusion. Primary hepatocytes cultures with viability greater than 95% are selected for the glycogen synthesis assay. The cells are seeded in a 48-well plate at a density of 200,000 cells/well in 250 μl Minimal Essential Medium (MEM) containing 10% foetal calf serum (FCS) and 1.7 μM insulin, and incubated for 4 hours at 37° C. to allow attachment. The medium is replaced with fresh MEM containing 10% FCS, 1.7 μM insulin and 10 nM dexamethasone, and the cells are incubated for 16 hours at 37° C. The medium is then replaced with fresh MEM (serum-free) containing 2 μCi/ml of D-[U^14C]-Glucose along with 10 μM of the compound in a final DMSO concentration of 0.1%. The final glucose concentration is brought to 10 mM by the addition of D-Glucose (MEM already contains 5 mM glucose). The cells are incubated for 3 hours at 37° C. The cells are washed twice with 150 mM NaCl, lysed with 0.1 N NaOH, and the lysate precipitated with 8% w/v trichloroacetic acid (TCA) and 1 mg/well unlabeled glycogen as carrier. Cell debris is pelleted by centrifugation, the supernatant is removed, and the glycogen is precipitated with 63% ethanol. After another round of centrifugation, the supernatant is removed, and the pellet containing the precipitated glycogen is dried overnight. De novo synthesized glycogen is estimated in a scintillation counter (MicroBeta Trilux, Perkin Elmer), and expressed as fold increase over DMSO control.
The protocol for the glycogen assay is based on the method described in “Biochem J. 1990 Feb. 15; 266(1): 91-102” with a few minor modifications. The protocol for isolation of primary rat hepatocytes is based on the method described in “Methods in Enzymology, Vol. III. pp 34-50. Ed. by S. P. Colowick and N. O. Kaplan. New York, Academic Press, 1957” with a few minor modifications.
Compounds described in formula (I), in concentration ranges from 1.0 nM to 500 μM, are tested in glycogen synthesis assay described above.

Molecule	hypoglycemia in animal efficacy models [1]	melting point	EC50 [2]	% Emax (with respect to % ΔS0.5) [2]	Fold increase in glycogen synthesis at 10 μM compound (primary rat hepatocytes)	Emax [2]	fold induction at 10 µM (primary rat hepatocytes)
Ro-28-1675	cause hypoglycemia	–	–	–	–	–	–
O=C(O)Cc1csc(NC(=O)C(Oc2ccc(F)cc2)c2ccc(S(=O)(=O)C3CC3)cc2)n1 (centres unmarked) [Example B1, {2-[2-(4-Cyclopropanesulfonylphenyl)-2-(4-fluorophenoxy)acetylamino]thiazol-4-yl}acetic acid]	–	72 to 73 °C	–	–	–	–	–
O=C(O)Cc1nc(NC(=O)C(Oc2ccc(F)cc2F)c2ccc(S(=O)(=O)C3CCCC3)cc2)sc1Cl (single isomer, unassigned; (+)) [Example F2, (+)-{5-Chloro-2-[2-(4-cyclopentanesulfonyl-phenyl)-2-(2,4-difluorophenoxy)acety-lamino]thiazol-4-yl}acetic acid]	–	–	670 nM	95%	7.2 fold	–	–
O=C(O)c1cccc(Oc2cnc(NC(=O)C(OC3CCOCC3)c3ccc(S(=O)(=O)C4CC4)cc3)s2)c1 (centres unmarked) [Example B92, 3-{2-[2-(4-Cyclopropanesulfonyl-phenyl)-2-(tetrahydro-pyran-4-yloxy)-acetylamino]-thiazol-5-yloxy}-benzoic acid]	–	–	170 nM	–	–	91%	7.8
O=C(O)Cc1nc(NC(=O)C(Oc2ccc(F)cc2F)c2ccc(S(=O)(=O)C3CC3)cc2)sc1Cl (single isomer, unassigned; (-)) [Example E1, (−)-{5-Chloro-2-[2-(4-cyclopropanesulfonyl-phenyl)-2-(2,4-difluorophenoxy)acetyl-amino]thiazol-4-yl}acetic acid]	–	–	1550 nM	–	–	95%	8.1
O=C(O)Cc1csc(NC(=O)C(Oc2ccc(F)cc2F)c2ccc(S(=O)(=O)C3CCCCC3)cc2)n1 (centres unmarked) [Example B16, {2-[2-(4-Cyclohexanesulfonylphenyl)-2-(2,4-difluorophenoxy)acetylamino]-thiazol-4-yl}acetic acid]	–	–	1000 nM	–	–	90%	5.5
O=C(O)Cc1nc(NC(=O)C(Oc2ccc3[nH]ccc3c2)c2ccc(S(=O)(=O)C3CC3)cc2)sc1Cl (centres unmarked) [Example B19, {5-Chloro-2-[2-(4-cyclopropanesulfonylphenyl)-2-(1H-indol-5-yloxy)acetylamino]thiazol-4-yl}acetic acid]	–	–	3300 nM	–	–	95%	3.3
O=C(O)Cc1csc(NC(=O)C(Oc2ccc(F)cc2F)c2ccc(S(=O)(=O)C3CC3)cc2)n1 (single isomer, unassigned; (-)) [Example E3, (−){2-[2-(4-Cyclopropanesulfonylphenyl)-2-(2,4-difluorophenoxy)acetylamino]-thiazol-4-yl}acetic acid]	–	–	2370 nM	–	–	90%	9.5
O=C(O)Cc1nc(NC(=O)C(Oc2ccc(Cl)cc2)c2ccc(S(=O)(=O)C3CC3)cc2)sc1Cl (centres unmarked) [Example B6, {5-Chloro-2-[2-(4-chlorophenoxy)-2-(4-cyclopropanesulfonylphenyl)-acetylamino]-thiazol-4-yl}acetic acid]	–	–	830 nM	–	–	90%	8.6
O=C(O)Cc1nc(NC(=O)C(Oc2ccc(F)cc2F)c2ccc(S(=O)(=O)C3CC3)cc2)sc1Cl (single isomer, unassigned; (+)) [Example F1, (+)-{5-Chloro-2-[2-(4-cyclopropanesulfonyl-phenyl)-2-(2,4-difluorophenoxy)acetyl-amino]thiazol-4-yl}-acetic acid]	–	–	1270 nM	90%	4.5 fold	–	–
O=C(O)Cc1csc(NC(=O)C(Oc2ccc(F)cc2F)c2ccc(S(=O)(=O)C3CC3)cc2)n1 (single isomer, unassigned; (+)) [Example F3, (+)-{2-[2-(4-Cyclopropanesulfonylphenyl)-2-(2,4-difluorophenoxy)acetylamino]thiazol-4-yl}acetic acid]	–	–	2470 nM	90%	7.0 fold	–	–
